Tests used:
[1] = tested on: HBV replication in HepAD38 cells; test: Anti-HBV replication assay in HepAD38 cells (QPCR of extracellular HBV DNA); format: cell-based, HBV (genotype D, serotype ayw); conditions: Hepatitis B virus, 168 h, 7 days incubation, extracellular HBV DNA by QPCR, read-out: Anti-HBV EC50
Experimental: The anti-HBV activity of the Capsid Assembly Modulators (CAMs) was evaluated in a cell based assay utilizing the human hepatoma cell line HepAD38 (Ladner, S K., et al., 1998). HepAD38 cells were derived from the parental line, HepG2, that were stably transfected with a construct containing an HBV genome (genotype D, serotype ayw) under the control of a tetracycline repressible CMV promoter. Upon removal of tetracycline, viral pre-genomic RNA (pgRNA) and mRNAs are expressed and infectious viral particles are assembled and secreted into the culture medium providing a reliable, robust system to measure multiple steps of the HBV life cycle. Disruption of capsid formation results in reduced levels of DNA-containing virus particles that are released into the culture supernatant. To quantify the effect of CAMs on HBV replication, we developed a sensitive QPCR-based assay that measures extracellular HBV DNA levels upon treatment of HepAD38 cells with various concentrations of test compounds.
HepAD38 cells were maintained in DMEM/F12 medium containing 10% FBS, 400 μg/mL G418 and 0.3 μg/mL tetracycline (tet+ media) to maintain repression of HBV replication. To evaluate each compound, HepAD38 cells were seeded into 24-well collagen coated culture plates (Corning BioCoat) at a density of 200,000 cells per well in 1 mL of medium without tetracycline (tet-media) and allowed to adhere overnight at 37° C., 5% CO2 in a humidified incubator. The following day, media was refreshed and a dose range of each compound was prepared by performing 1 log10 serial dilutions in 100% DMSO at 200× the desired assay concentration. Dilutions were then added to the cells resulting in a final dose range of 1 μM to 10 μM and the plates were returned to the incubator. Following 7 days of incubation, culture supernatants were harvested and HBV DNA levels were evaluated by QPCR and compared to the vehicle treated control wells (i.e. DMSO alone).
To quantify HBV DNA levels, cell culture supernatants were diluted 1:10 in sterile, nuclease-free water (Gibco). The diluted supernatants were subsequently added to a PCR master mix containing 1× Roche Light Cycler Master Mix, 0.5 μM forward primer, 0.5 μM reverse primer (Fwd: 5′-[…] (SEQ ID NO 1); Rev: 5′-[…] (SEQ ID NO 2)), 0.2 μM Roche Universal Probe Library Probe 25. The volume was brought to 20 μL with nuclease-free water and amplification of the HBV target sequence was performed using a Roche LightCycler 480 QPCR instrument. PCR extended out to 45 cycles with each cycle consisting of a denaturation step at 95° C. for 10 sec., followed by an annealing step at 60° C. for 10 sec. and a brief extension step at 72° C. for 1 sec.
Extracellular HBV DNA levels, expressed in copies/mL, were determined by comparison to a standard curve (10^2-10^9 copies/mL) using the Roche LightCycler analysis software. These values were subsequently converted to percent inhibition of HBV replication by dividing the HBV DNA levels in the experimental samples with those obtained from the vehicle control (˜1-2×10^5 copies/mL). Potency, expressed as an EC50 (the effective concentration required to inhibit 50% of HBV replication), was calculated from the dose-response curve using a 4-parameter non-linear regression analysis (GraphPad Prism). The nucleoside analog inhibitor entecavir was used as a positive control to validate each assay run. The EC50 value of entecavir in the HepAD38 assay was 0.5 nM, as previously reported in the literature.

[2] = In vitro cytotoxicity assay (MTT cell viability) in HepG2 cells; format: cell-based, human; conditions: human
Experimental: To evaluate antiviral selectivity, the cytotoxic activity of each compound was determined using a standard cell viability assay performed on the parental HepG2 cell line. Cell viability was determined by measuring the conversion of 3-(4,5-dimethylthiazol-2-yl)-2,5-diphenyltetrazolium bromide (MTT) to the insoluble formazan salt crystal that occurs in live cells. Briefly, HepG2 cells were seeded in 96-well plates at a density of 20,000 cells per well in EMEM+10% FBS (complete growth medium) and allowed to adhere overnight in a 37° C., 5% CO2 humidified incubator. The next day, test agents were prepared by performing 8 half-log10 serial dilutions in 100% DMSO at 200× the final desired concentration in the assay. Compounds were tested over a range of concentrations from 30 μM to 1.0 nM in the assay. HepG2 cells were incubated in the presence of various concentrations of CAMs for 7 days in a 37° C., 5% CO2 humidified incubator. At the completion of the 7-day incubation period, MTT reagent was added to each well and the mixture was incubated for an additional 3-4 hours. At the completion of the incubation period, all wells were aspirated to remove the culture medium. The formazan crystals were solubilized from the cell monolayers with 100% DMSO. Plates were briefly mixed on an orbital shaker and absorbance was measured at 492 nm using a Perkin-Elmer EnVision multi-label plate reader. All absorbance values were converted to a percentage of the signal obtained from the vehicle treated controls. Absorbance values at 492 nm are directly proportional to the number of viable cells present in the sample. A CC50 value (cytotoxic concentration that results in loss of 50% cell viability) was calculated from the dose-response curve by 4-parameter, non-linear regression analysis using the GraphPad Prism software. The positive control compound, staurosporine, reduced the viability of HepG2 cells in a dose-dependent manner (CC50=100 nM).

Compound | EC50 [1] | CC50 at 7 days [2]
Cc1cc(NC(=O)c2c(C)c(C(=O)C(=O)Nc3ccc(F)c(F)c3)n(C)c2C)ccc1F [Example 231, 5-(2-((3,4-difluorophenyl)amino)-2-oxoacetyl)-N-(4-fluoro-3-methylphenyl)-1,2,4-trimethyl-1H-pyrrole-3-carboxamide] | < 0.05 µM | 5 to 30 µM
Cc1cc(NC(=O)c2c(C)c(C(=O)C(=O)NC3(c4noc(-c5cccs5)n4)CCCCC3)n(C)c2C)ccc1F [Example 634] | < 0.05 µM | > 30 µM
Cc1c(C(=O)Nc2ccc(F)c(Cl)c2)c2n(c1C(=O)C(=O)NC1(CO)CCC1)CCCC2 [Example 452, N-(3-chloro-4-fluorophenyl)-3-(2-((1-(hydroxymethyl)cyclobutyl)amino)-2-oxoacetyl)-2-methyl-5,6,7,8-tetrahydroindolizine-1-carboxamide] | < 0.05 µM | 5 to 30 µM
Cc1nc2c(s1)C(NC(=O)C(=O)c1c(C)c(C(=O)Nc3cnc(F)c(C)c3)c(C)n1C)CCC2 (stereo not drawn) [Example 606, N-(6-fluoro-5-methylpyridin-3-yl)-1,2,4-trimethyl-5-(2-((2-methyl-4,5,6,7-tetrahydrobenzo[d]thiazol-7-yl)amino)-2-oxoacetyl)-1H-pyrrole-3-carboxamide] | < 0.05 µM | > 30 µM
Cc1cc(NC(=O)c2c(Cl)c(C(=O)C(=O)NCC(C)(C)O)n3c2CCCC3)ccc1F [Example 497, 2-chloro-N-(4-fluoro-3-methylphenyl)-3-(2-((2-hydroxy-2-methylpropyl)amino)-2-oxoacetyl)-5,6,7,8-tetrahydroindoliine-1-carboxamide] | 0.05 to 0.499 µM | 0.5 to 4.99 µM
Cc1c(C(=O)Nc2ccc(F)nc2)c(C)n(C)c1C(=O)C(=O)NC1C2CC3CC(C2)CC1C3 (stereo not drawn) [Example 91, 5-(2-(((1r,3r)-adamantan-2-yl)amino)-2-oxoacetyl)-N-(6-fluoropyridin-3-yl)-1,2,4-trimethyl-1H-pyrrole-3-carboxamide] | < 0.05 µM | > 30 µM
Cc1cc(NC(=O)c2c(C)c(C(=O)C(=O)NC3(C(F)(F)F)CCC3)n(C)c2C)ccc1F [Example 236, N-(4-fluoro-3-methylphenyl)-1,2,4-trimethyl-5-(2-oxo-2-((1-(trifluoromethyl)cyclobutyl)amino)acetyl)-1H-pyrrole-3-carboxamide] | < 0.05 µM | 5 to 30 µM
O=C(NC1(CO)CC1)C(=O)c1c(Cl)c(C(=O)Nc2ccc(F)c(Cl)c2)c2n1CCC2 [Example 566, 6-chloro-N-(3-chloro-4-fluorophenyl)-5-(2-((1-(hydroxymethyl)cyclopropyl)amino)-2-oxoacetyl)-2,3-dihydro-1H-pyrrolizine-7-carboxamide] | < 0.05 µM | 5 to 30 µM
Cc1cc(NC(=O)c2c(C)c(C(=O)C(=O)NC34CC5CC(CC(O)(C5)C3)C4)n(C)c2C)cnc1F [Example 114, N-(6-fluoro-5-methylpyridin-3-yl)-5-(2-(((1r,3s,5R,7S)-3-hydroxyadamantan-1-yl)amino)-2-oxoacetyl)-1,2,4-trimethyl-1H-pyrrole-3-carboxamide] | < 0.05 µM | > 30 µM
Cc1noc([C@@H](C)NC(=O)C(=O)c2c(Cl)c(C(=O)Nc3ccc(F)c(C)c3)c3n2CCC3)n1 [Example 546, (R)-6-chloro-N-(4-fluoro-3-methylphenyl)-5-(2-((1-(3-methyl-1,2,4-oxadiazol-5-yl)ethyl)amino)-2-oxoacetyl)-2,3-dihydro-1H-pyrrolizine-7-carboxamide] | < 0.05 µM | > 30 µM
Cc1cc(NC(=O)c2c(C)c(C(=O)C(=O)N[C@H]3CC[C@H](CO)CC3)n(C)c2C)ccc1F [Example 675, N-(4-fluoro-3-methylphenyl)-5-(2-(((1r,4r)-4-(hydroxymethyl)cyclohexyl)amino)-2-oxoacetyl)-1,2,4-trimethyl-1H-pyrrole-3-carboxamide] | < 0.05 µM | > 30 µM
Cc1c(C(=O)Nc2ccc(F)c(Cl)c2)c2n(c1C(=O)C(=O)N[C@H]1C[C@H](O)C1)CCCC2 [Example 449, N-(3-chloro-4-fluorophenyl)-3-(2-(((1r,3r)-3-hydroxycyclobutyl)amino)-2-oxoacetyl)-2-methyl-5,6,7,8-tetrahydroindoliziine-1-carboxamide] | 0.05 to 0.499 µM | > 30 µM
Cc1cc(NC(=O)c2c(C)c(C(=O)C(=O)N[C@H]3C[C@H](O)C34CCOCC4)n(C)c2C)ccc1F [Example 620, N-(4-fluoro-3-methylphenyl)-5-(2-(((1S,3S)-3-hydroxy-7-oxaspiro[3.5]nonan-1-yl)amino)-2-oxoacetyl)-1,2,4-trimethyl-1H-pyrrole-3-carboxamide] | < 0.05 µM | > 30 µM
Cc1noc([C@@H](NC(=O)C(=O)c2c(Cl)c(C(=O)Nc3ccc(F)c(C)c3)c3n2CCCC3)C(C)C)n1 [Example 493, (S)-2-chloro-N-(4-fluoro-3-methylphenyl)-3-(2-((2-methyl-1-(3-methyl-1,2,4-oxadiazol-5-yl)propyl)amino)-2-oxoacetyl)-5,6,7,8-tetrahydroindolizine-1-carboxamide] | < 0.05 µM | 5 to 30 µM
CC(C)(O)CNC(=O)C(=O)c1c(Cl)c(C(=O)Nc2ccc(F)c(F)c2)c2n1CCC2 [Example 560, 6-chloro-N-(3,4-difluorophenyl)-5-(2-((2-hydroxy-2-methylpropyl)amino)-2-oxoacetyl)-2,3-dihydro-1H-pyrrolizine-7-carboxamide] | < 0.05 µM | > 30 µM
Cc1noc([C@@H](C)NC(=O)C(=O)c2cc(C(=O)Nc3ccc(F)c(C)c3)c3n2CCCC3)n1 [Example 431, (R)-N-(4-fluoro-3-methylphenyl)-3-(2-((1-(3-methyl-1,2,4-oxadiazol-5-yl)ethyl)amino)-2-oxoacetyl)-5,6,7,8-tetrahydroindolizine-1-carboxamide] | 0.05 to 0.499 µM | > 30 µM
Cc1cc(NC(=O)c2c(C)c(C(=O)C(=O)N3CCc4nc(N)sc4C3)n(C)c2C)ccc1F [Example 49, 5-(2-(2-amino-6,7-dihydrothiazolo[5,4-c]pyridin-5(4H)-yl)-2-oxoacetyl)-N-(4-fluoro-3-methylphenyl)-1,2,4-trimethyl-1H-pyrrole-3-carboxamide] | 0.05 to 0.499 µM | > 30 µM
Cc1cc(NC(=O)c2c(C)c(C(=O)C(=O)NCCN)n(C)c2C)ccc1F [Example 257, 5-(2-((2-aminoethyl)amino)-2-oxoacetyl)-N-(4-fluoro-3-methylphenyl)-1,2,4-trimethyl-1H-pyrrole-3-carboxamide] | 0.05 to 0.499 µM | 5 to 30 µM
